According to PubChem BioAssay (NCI):
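Each compound was tested at five concentrations against cells in 96-well plates for 48 hours. Definition used: TGI = concentration required for complete inhibition of growth.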

Legend:
Test in all cases: inhibition of tumour cell growth, NCI panel, 48 h
[1] = test system: ACHN renal
[2] = test system: NCI-H522 lung
[3] = test system: COLO 205 colon
[4] = test system: DU-145 prostate
[5] = test system: NCI-H23 lung
[6] = test system: A498 renal
[7] = test system: NCI-H226 lung
[8] = test system: SR leukemia
[9] = test system: HOP-62 NSCLC
[10] = test system: MALME-3M melanoma
[11] = test system: HCT-15 colon
[12] = test system: HT29 colon
[13] = test system: K-562 leukemia
[14] = test system: SK-MEL-5 melanoma
[15] = test system: SNB-19 CNS
[16] = test system: MCF7 breast
[17] = test system: SK-MEL-28 melanoma
[18] = test system: UACC-257 melanoma
[19] = test system: BT-549 breast
[20] = test system: MDA-MB-435
[21] = test system: SW-620 colon
[22] = test system: UACC-62 melanoma
[23] = test system: EKVX NSCLC
[24] = test system: HL-60(TB) leukemia
[25] = test system: 786-0 renal
[26] = test system: LOX IMVI melanoma
[27] = test system: HCT-116 colon
[28] = test system: HCC-2998 colon
[29] = test system: MDA-MB-231 breast
[30] = test system: T-47D breast
[31] = test system: OVCAR-3 ovarian
[32] = test system: IGROV1 ovarian
[33] = test system: SN12C renal
[34] = test system: OVCAR-8 ovarian
[35] = test system: SNB-75 CNS
[36] = test system: TK-10 renal
[37] = test system: OVCAR-4 ovarian
[38] = test system: U251 CNS
[39] = test system: OVCAR-5 ovarian
[40] = test system: RPMI-8226 leukemia
[41] = test system: NCI-H460 lung
[42] = test system: UO-31 renal
[43] = test system: CAKI-1 renal
[44] = test system: MOLT-4 leukemia
[45] = test system: PC-3 prostate
[46] = test system: HS 578T breast
[47] = test system: SF-295 CNS
[48] = test system: NCI/ADR-RES ovarian
[49] = test system: SF-268 CNS
[50] = test system: MDA-N
[51] = test system: KM12 colon
[52] = test system: SK-OV-3 ovarian
[53] = test system: A549 NSCLC
[54] = test system: RXF 393 renal
[55] = test system: SK-MEL-2 melanoma
[56] = test system: SF-539 CNS
[57] = test system: M14 melanoma
[58] = test system: CCRF-CEM leukemia

Measured: TGI

CC(C)=CCOC(=O)C(C)=[N+]=[N-]
not listed: [52] | [53] | [54] | [55] | [56] | [57] | [58]
> 100 µM: all other assays above

COc1ccc(N2C(=O)C3c4[nH]c5ccc(OCc6ccccc6)cc5c4C4CCC(C(C)(C)C)CC4C3C2=O)cc1 (stereo unspecified)
55.5 µM: [30]
59.4 µM: [37]
54.1 µM: [10]
60.4 µM: [38]
81.8 µM: [25]
not listed: [35] | [42] | [58]
> 100 µM: all other assays above

NC(C(F)(F)F)(C(F)(F)F)P(=O)(Cc1ccccc1)Cc1ccccc1
not listed: [2] | [6] | [7]
> 100 µM: all other assays above
